The values that follow come from ChEMBL document CHEMBL6109078, “Pyrylium derivatives as outer membrane permeabilizers against MDR gram-negative bacteria via multi-target mode of action” (Eur J Med Chem, 2025).

Activity calls are given as the source filed them. The calls are words filed in the database; no cut-off is given here.

Experiment [1] relates to Escherichia coli. Kind of experiment: Antibacterial activity against Escherichia coli ATCC 25922 infected in Galleria mellonella larvae assessed as survival rate of larvae at 50 microg/ml relative to control. Format: functional.
The subject of experiment [2] is Escherichia coli. Kind of experiment: Synergistic antibacterial activity against Escherichia coli ATCC 25922 infected in Galleria mellonella larvae assessed as survival rate of larvae at 50 microg/ml in presence of polymyxin B relative to control. Format: functional.
The test system of experiment [3] is Acinetobacter baumannii. Kind of experiment: Antibacterial activity against Acinetobacter baumannii ATCC 19606 infected in Galleria mellonella larvae assessed as survival rate of larvae at 50 microg/ml measured after 96 hrs relative to control. It is filed as functional.
The test system of experiment [4] is Acinetobacter baumannii. Kind of experiment: Synergistic antibacterial activity against Acinetobacter baumannii ATCC 19606 infected in Galleria mellonella larvae assessed as survival rate of larvae at 50 microg/ml measured after 96 hrs in presence of polymyxin B relative to control. It is filed as functional.
Experiment [5] concerns Escherichia coli. Kind of experiment: Induction of morphological changes in Escherichia coli ATCC 25922 assessed as appearance of filamentous bacterial cells at 6.25 microg/ml incubated for 1 hrs by optical microscopic analysis. It is filed as functional, organism-based. The following applies: dose 6.25 µg/ml.
The subject of experiment [6] is Escherichia coli. Kind of experiment: Antibacterial activity against Escherichia coli ATCC 25922 assessed as inhibition of bacterial growth by measuring fold change in MIC incubated for 16 to 18 hrs in presence of LPS. Format: functional. The following applies: time 16-18 hrs.
The subject of experiment [7] is Lipopolysaccharide (LPS). Kind of experiment: Binding affinity to LPS (unknown origin) by BLI analysis. The conditions noted are these: dose 3.13-25 µg/ml.
Experiment [8] addresses Lipopolysaccharide (LPS). Kind of experiment: Binding affinity to LPS (unknown origin) assessed as dissociation constant by BLI analysis.
Experiment [9] deals with Lipopolysaccharide (LPS). Kind of experiment: Binding affinity to LPS (unknown origin) assessed as exothermic heat release at 100 mM by ITC analysis. The following applies: time <= 40.0 min.
Experiment [10] relates to Bacteria. Kind of experiment: Inhibition of His-tagged His-tagged LptA/LptC (unknown origin) protein-protein interaction extracted from Escherichia coli BL21 (DE3) cells by BLI analysis. The following applies: dose 0.39-1.56 µg/ml.
The test system of experiment [11] is Bacteria. Kind of experiment: Binding affinity to His-tagged LptC (unknown origin) extracted from Escherichia coli BL21 (DE3) cells by BLI analysis.

`CCN(CC)c1ccc(/C=C/c2cc(C(C)(C)C)[o+]c(C(C)(C)C)c2)cc1.O=S(=O)([O-])C(F)(F)F`: the survival at 50 µg/mL with Escherichia coli [1] came out at 20%; with Escherichia coli [2], 70%; in the experiment with Acinetobacter baumannii [3] it was 10%; in the experiment on Acinetobacter baumannii [4], 80%. In addition, in the experiment on Escherichia coli [5], the outcome was Active. The “fold change (FC)” value in the experiment on Escherichia coli [6] is recorded as 2. The figures for the Activity result in the experiment with Lipopolysaccharide (LPS) [7] and in the experiment with Lipopolysaccharide (LPS) [9] were “Dose-dependent-effect” and “Time-dependent-effect”, respectively. For the same compound, the Kd on Lipopolysaccharide (LPS) [8] was 4 µM. Also, the inhibition entry in the experiment on Bacteria [10] is “Dose-dependent-effect”.

Regarding `CN1CCOc2cc(/C=C/c3cc(C(C)(C)C)[o+]c(C(C)(C)C)c3)ccc21.O=S(=O)([O-])C(F)(F)F`, the result in the experiment on Bacteria [11] was inactive.

On to `CC(C)(C)c1cc(/C=C/c2ccc(N3CCCC3)cc2)cc(C(C)(C)C)[o+]1.O=S(=O)([O-])C(F)(F)F`, for which, in the experiment with Escherichia coli [5], the outcome was Active. The “fold change (FC)” value in the experiment on Escherichia coli [6] is 2.

What is called Kd is a measure of binding affinity in units of concentration.
